Assays:
Format in all cases: in vivo
[1] = system: Cabbage Looper (Trichoplusia ni, TRIPNI) ("CL"); experiment: Bioassays on Cabbage Looper (CL), 128-well diet tray assay; conditions: Trichoplusia ni, 168 h, read-out: CL % Control (or Mortality) rating
Summary of the method: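 Second instar larvae (one to five per well) placed on artificial diet treated with 50 μg/cm^2 compound in acetone-water, eight wells per compound. Held at 25° C, 14:10 light-dark for five to seven days; percent mortality averaged across wells.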

[2] = system: Beet Armyworm (Spodoptera exigua, LAPHEG) ("BAW"); experiment: Bioassays on Beet Armyworm (BAW), 128-well diet tray assay; conditions: Spodoptera exigua, 168 h; second instar BAW larvae, 50 μg/cm^2 on artificial diet, five to seven days, 25° C.; read-out: BAW % Control (or Mortality) rating
Summary of the method: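 Second-instar larvae, one to five per well, were placed on artificial diet surface-treated with 50 μg/cm^2 compound in 90:10 acetone-water and dried, eight wells per compound. Trays were held at 25° C, 14:10 light-dark, for five to seven days. Percent mortality per well was averaged over the eight wells.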

[3] = system: Yellow Fever Mosquito (Aedes aegypti, AEDSAE) ("YFM"); conditions: about 1 day-old larvae, 4000 ppm master solution diluted, 3 days, room temperature
Summary of the method: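 Compounds from 4000 ppm DMSO master plates, diluted in 90:10 water:acetone, dispensed into 96-well plates, six replicates. About 1-day-old larvae added in liver-powder water. Wells covered, held 3 days at room temperature, then scored for mortality.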

Structure (SMILES)	mortality at 50 µg/cm2 [1] [%]	mortality at 50 µg/cm2 [2] [%]	YFM % Control (or Mortality) rating [3]
COc1ccccc1-c1cccc(C(=O)Nc2ccc(-c3ncn(-c4ccc(OC(C)C)cc4)n3)cc2)c1 [F5, N-(4-(1-(4-isopropoxyphenyl)-1H-1,2,4-triazol-3-yl)phenyl)-2′-methoxy-[1,1′-biphenyl]-3-carboxamide]	50 to 100	50 to 100	B (More than 0-Less than 80)
CN(C)c1ccccc1-c1cccc(C(=O)NCCc2ccc(-c3ncn(-c4ccc(OC(F)(F)F)cc4)n3)cc2)c1 [F52, 2′-(Dimethylamino)-N-(4-(1-(4-(trifluoromethoxy)phenyl)-1H-1,2,4-triazol-3-yl)phenethyl)-[1,1′-biphenyl]-3-carboxamide]	50 to 100	50 to 100	A (80-100)
O=C(Nc1ccc(-c2ncn(-c3ccc(OC(F)(F)F)cc3)n2)cc1)c1ccc(F)c(-c2ccccc2)c1 [F11, 6-Fluoro-N-(4-(1-(4-(trifluoromethoxy)phenyl)-1H-1,2,4-triazol-3-yl)phenyl)-[1,1′-biphenyl]-3-carboxamide]	50 to 100	50 to 100	D (No activity noticed in this bioassay)
O=C(NCCc1ccc(-c2ncn(-c3ccc(OC(F)(F)F)cc3)n2)cc1)c1ccc(F)c(-c2ccccc2)c1 [F51, 6-Fluoro-N-(4-(1-(4-(trifluoromethoxy)phenyl)-1H-1,2,4-triazol-3-yl)phenethyl)-[1,1′-biphenyl]-3-carboxamide]	0	50 to 100	D (No activity noticed in this bioassay)
COc1ccccc1-c1cccc(C(=S)Nc2ccc(-c3ncn(-c4ccc(OC(F)(F)F)cc4)n3)cc2)c1 [F21, 2′-Methoxy-N-(4-(1-(4-(trifluoromethoxy)phenyl)-1H-1,2,4-triazol-3-yl)phenyl)-[1,1′-biphenyl]-3-carbothioamide]	50 to 100	50 to 100	A (80-100)
Cc1ccccc1-c1cc(C(=O)Nc2ccc(-c3ncn(-c4ccc(C(F)(F)F)cc4)n3)cc2)ccc1F [F58, 6-Fluoro-2′-methyl-N-(4-(1-(4-(trifluoromethyl)phenyl)-1H-1,2,4-triazol-3-yl)phenyl)-[1,1′-biphenyl]-3-carboxamide]	50 to 100	50 to 100	D (No activity noticed in this bioassay)
O=C(Nc1ccc(-c2ncn(-c3ccc(OC(F)(F)C(F)(F)F)cc3)n2)cc1)c1ccc(F)c(-c2ccccc2)c1 [F40, 6-Fluoro-N-(4-(1-(4-(perfluoroethoxy)phenyl)-1H-1,2,4-triazol-3-yl)phenyl)-[1,1′-biphenyl]-3-carboxamide]	50 to 100	0	D (No activity noticed in this bioassay)
Cc1ccccc1-c1cc(F)cc(C(=O)N(C)c2ccc(-c3ncn(-c4ccc(OC(F)(F)C(F)(F)F)cc4)n3)cc2)c1 [F29, 5-fluoro-N,2′-dimethyl-N-(4-(1-(4-(perfluoroethoxy)phenyl)-1H-1,2,4-triazol-3-yl)phenyl)-[1,1′-biphenyl]-3-carboxamide]	0	50 to 100	D (No activity noticed in this bioassay)
Cc1ccccc1-c1cc(F)cc(C(=O)Nc2ccc(-c3ncn(-c4ccc(OC(F)(F)F)cc4)n3)cc2)c1 [F39, 5-Fluoro-2′-methyl-N-(4-(1-(4-(trifluoromethoxy)phenyl)-1H-1,2,4-triazol-3-yl)phenyl)-[1,1′-biphenyl]-3-carboxamide]	50 to 100	50 to 100	D (No activity noticed in this bioassay)
COc1ccccc1-c1cccc(C(=S)Nc2ccc(-c3ncn(-c4ccc(OC(F)(F)C(F)(F)F)cc4)n3)cc2)c1 [F23, 2′-methoxy-N-(4-(1-(4-(perfluoroethoxy)phenyl)-1H-1,2,4-triazol-3-yl)phenyl)-[1,1′-biphenyl]-3-carbothioamide]	50 to 100	50 to 100	A (80-100)
COc1ccccc1-c1cc(C(=O)Nc2ccc(-c3ncn(-c4ccc(OC(F)(F)F)cc4)n3)cc2)ccc1F [F44, 6-Fluoro-2′-methoxy-N-(4-(1-(4-(trifluoromethoxy)phenyl)-1H-1,2,4-triazol-3-yl)phenyl)-[1,1′-biphenyl]-3-carboxamide]	50 to 100	50 to 100	B (More than 0-Less than 80)
Cc1ccccc1-c1cccc(C(=O)Nc2ccc(-c3ncn(-c4ccc(OC(F)(F)F)cc4)n3)cc2)n1 [F33, 6-(o-Tolyl)-N-(4-(1-(4-(trifluoromethoxy)phenyl)-1H-1,2,4-triazol-3-yl)phenyl)picolinamide]	50 to 100	0	D (No activity noticed in this bioassay)
Cc1ccc(-c2cccc(C(=O)Nc3ccc(-c4ncn(-c5ccc(OC(F)(F)F)cc5)n4)cc3)n2)c(C)c1 [F2, 6-(2,4-Dimethylphenyl)-N-(4-(1-(4-(trifluoromethoxy)phenyl)-1H-1,2,4-triazol-3-yl)phenyl)picolinamide]	0	0 to 50	D (No activity noticed in this bioassay)
O=C(Nc1ccc(-c2ncn(-c3ccc(OC(F)(F)F)cc3)n2)cc1)c1cccc(-c2ccccc2OCc2ccccc2)c1 [F3, 2′-(Benzyloxy)-N-(4-(1-(4-(trifluoromethoxy)phenyl)-1H-1,2,4-triazol-3-yl)phenyl)-[1,1′-biphenyl]-3-carboxamide]	0	0	D (No activity noticed in this bioassay)
O=C(Nc1ccc(-c2ncn(-c3ccc(OC(F)(F)F)cc3)n2)cc1)c1cc(-c2ccccc2)ccc1Cl [F15, 4-Chloro-N-(4-(1-(4-(trifluoromethoxy)phenyl)-1H-1,2,4-triazol-3-yl)phenyl)-[1,1′-biphenyl]-3-carboxamide]	0	0	D (No activity noticed in this bioassay)
O=C(NCc1ccc(-c2ncn(-c3ccc(OC(F)(F)F)cc3)n2)cc1)c1cccc(-c2ccccc2)c1 [F57, N-(4-(1-(4-(trifluoromethoxy)phenyl)-1H-1,2,4-triazol-3-yl)benzyl)-[1,1′-biphenyl]-3-carboxamide]	50 to 100	0	D (No activity noticed in this bioassay)
COc1ccccc1-c1cccc(C(=O)Nc2ccc(-c3ncn(-c4ccc(OC(F)(F)C(F)(F)F)cc4)n3)cc2)c1 [F26, 2′-Methoxy-N-(4-(1-(4-(perfluoroethoxy)phenyl)-1H-1,2,4-triazol-3-yl)phenyl)-[1,1′-biphenyl]-3-carboxamide]	50 to 100	50 to 100	A (80-100)
CC(=O)c1ccccc1-c1cccc(C(=O)Nc2ccc(-c3ncn(-c4ccc(OC(F)(F)C(F)(F)F)cc4)n3)cc2)c1 [F9, 2′-Acetyl-N-(4-(1-(4-(perfluoroethoxy)phenyl)-1H-1,2,4-triazol-3-yl)phenyl)-[1,1′-biphenyl]-3-carboxamide]	50 to 100	50 to 100	A (80-100)
Cc1ccccc1-c1cc(F)cc(C(=O)Nc2ccc(-c3ncn(-c4ccc(OC(F)(F)C(F)(F)F)cc4)n3)cc2)c1 [F42, 5-Fluoro-2′-methyl-N-(4-(1-(4-(perfluoroethoxy)phenyl)-1H-1,2,4-triazol-3-yl)phenyl)-[1,1′-biphenyl]-3-carboxamide]	50 to 100	0	D (No activity noticed in this bioassay)
COc1ccccc1-c1cc(C(=O)Nc2ccc(-c3ncn(-c4ccc(OC(C)C)cc4)n3)cc2)ccc1F [F4, 6-Fluoro-N-(4-(1-(4-isopropoxyphenyl)-1H-1,2,4-triazol-3-yl)phenyl)-2′-methoxy-[1,1′-biphenyl]-3-carboxamide]	50 to 100	50 to 100	B (More than 0-Less than 80)

Source: US9550739B2, “Molecules having certain pesticidal utilities, and intermediates, compositions, and processes related thereto” (priority 2014, dated 2017)
